The assay in a line: Remineralizing ability 1: bovine enamel block with artificial caries immersed in sugar test solution. The note with it: sugar 20% in 3.0 mM calcium ion / 1.8 mM phosphate ion, immersed ten days. Here is the method:
The remineralization effect of the sugars was evaluated in an in vitro test using a bovine tooth according to the procedures described in D. J. White et al., Caries Res., 21, 228 (1987).
1. An enamel section having 4 mm length×3 mm width was obtained from the bovine tooth. The section was embedded in a dental resin to obtain an enamel block.
2. An enamel varnish was applied to a portion of approximately ⅓ of the surface of the enamel block in order not to cause the demineralization of that portion. Then, the enamel block was demineralized with a demineralizing solution containing 50% of saturated hydroxyapatite/0.1M lactic acid/pH 5.0 to prepare an artificial caries.
3. An enamel varnish was applied to a portion of approximately ⅔ of the surface of the treated enamel block in order not to cause the remineralization of that portion. The enamel block was immersed for ten days in a test solution prepared by adding the test sugar into an aqueous solution containing 3.0 mM calcium ion and 1.8 mM phosphate ion so that the concentration of the sugar became 20%, to perform the remineralization treatment.
4. Three thin sections having approximately 500 μm in thickness were prepared from the enamel block. The central portion of the thin sections was ground so that the thickness became approximately 100 μm using a double-side polishing machine.
5. The X-ray photograph was taken of the thin section prepared in the fourth step. The mineral amounts of the demineralized portion and the remineralized portion were calculated based on the brightness of the each portion and a distance from the surface using an image processor. The mineral amount difference between the demineralized and remineralized portions was expressed as a remineralization value. […] A control test was performed in a similar manner to that described above, except that the test solution containing only 3.0 mM calcium ion and 1.8 mM phosphate ion but not containing the sugar was used.
Further, a similar test was performed in which sodium fluoride was added to the test solution to 2 ppm in terms of fluoride ion.

[1] abbreviates: sodium fluoride added to 2 ppm fluoride ion.

For `OC[C@@H](O)[C@@H](O)CO` [Erythritol], the Remineralization value runs as follows: under setting [1], 1330 Vol. % μm; (system not containing fluoride) 602 Vol. % μm.
The matching figures for `OC[C@@H](O)[C@@H](O)[C@H](O)[C@@H](O)CO` [Sorbitol]: 1358 Vol. % μm and 645 Vol. % μm.
Taken in the same sequence, the figures for `OC[C@@H](O)[C@H](O)[C@@H](O)CO` [Xylitol] were 1636 Vol. % μm and 416 Vol. % μm.
On to `OC[C@@H](O)[C@@H](O)[C@H](O)[C@H](O)CO` [Mannitol], for which the Remineralization value stood at 1377 Vol. % μm under setting [1] and 640 Vol. % μm (system not containing fluoride).
As for “α-D-glucopyranosyl-1,6-mannitol, its isomer, α-D-glucopyranosyl-1,6-sorbitol or a mixture thereof [Palatinit]”, the Remineralization value reads like this: under setting [1], 2374 Vol. % μm; (system not containing fluoride) 1057 Vol. % μm.
For `OC[C@H]1O[C@H](O[C@H]2O[C@H](CO)[C@@H](O)[C@H](O)[C@H]2O)[C@H](O)[C@@H](O)[C@@H]1O` [Trehalose], the Remineralization value by setting is: under setting [1], 1205 Vol. % μm; (system not containing fluoride) 715 Vol. % μm.

The values are drawn from patent US7300645B2, “Oral composition comprising isomalt and remineralizing enhancing agent” (Sunstar Kabushiki Kaisha, priority 1998, dated 2007).
